Drawing on ChEMBL document CHEMBL4483862, “Open-source discovery of chemical leads for next-generation chemoprotective antimalarials” (2018), this text covers IC50 and IC90 for 36 molecules.

The subject of this test is Plasmodium berghei. Nature of the test: Luciferase/luciferin-expressing antifolate-resistant parasites were used to infect a culture of HepG2 cells that were pre-incubated with compounds. Infected hepatocytes emit light due to the luciferase reaction. Assay results are presented as the percent inhibition of light emission compared to control. […]. The test is classed as functional. The following applies: sporozoite; for IC90: read-out: LUCIFERASE INFECTION ASSAY - IC90.

The mark [1] stands for this setting: read-out: LUCIFERASE INFECTION ASSAY - IC50.

Each structure is given as a SMILES string. Bounds are passed on as bounds.

As usually defined, the IC50 is the concentration that gives 50% inhibition. For orientation: IC90 means the point of the concentration-response curve where the effect stands at 90%.

Consider `Cc1cc(C2N=C(N)Nc3nc4ccccc4n32)c(C)n1-c1ccccc1Cl` (configuration not stated), for which the IC90 worked out at 7.59 µM. For the same molecule, where the note is “PBLUC_HILL_SLOPE 3.33, 1.30, PBLUC_R_SQUARED 0.920, 0.833, read-out: LUCIFERASE INFECTION ASSAY - IC50”, the IC50 was found to be 3.92 µM.

Consider `CCN1CCN(c2ccc(S(=O)(=O)N3CCOCC3)cc2NC(=O)/C=C/c2ccc([N+](=O)[O-])cc2)CC1`, for which the IC90 was more than 10 µM. For the same molecule, the IC50 (PBLUC_HILL_SLOPE 11, PBLUC_R_SQUARED 0.478, read-out: LUCIFERASE INFECTION ASSAY - IC50) worked out at 8.35 µM.

Turning to `C[C@@H]1OC(O[C@H]2C[C@@H](O)[C@]3(CO)[C@@H]4C(CC[C@]3(O)C2)[C@@]2(O)CC[C@H](C3=CC(=O)OC3)[C@@]2(C)C[C@H]4O)[C@H](O)[C@H](O)[C@H]1O` (some centres not stated), the IC90 is 0.179 µM. Besides, the IC50 (HEPG2TOX_HILL_SLOPE 1.56, HEPG2TOX_R_SQUARED 0.89, PBLUC_HILL_SLOPE 1.86, PBLUC_R_SQUARED 0.797, read-out: LUCIFERASE INFECTION ASSAY - IC50) came out at 0.0548 µM.

As to `CCNC(=O)COc1ccc(/C=C2\COc3ccccc3C2=O)cc1OC`, the IC90 was more than 10 µM. Besides, the IC50 under setting [1] is more than 10 µM.

As for `CNc1nc2cnc(Nc3cccc(N(C)C)c3)cc2n1-c1ccccc1`, the IC90 was more than 10 µM. The IC50 under setting [1] was more than 10 µM.

As for `CCN(C(=O)c1ccc(NC(=O)C2CC2)s1)c1ccccc1C`, the IC90 was more than 10 µM. For the same molecule, for the setting “PBLUC_HILL_SLOPE 5.48, PBLUC_R_SQUARED 0.146, read-out: LUCIFERASE INFECTION ASSAY - IC50”, the IC50 was 9.18 µM.

As for `CN1CCN(c2ccc(Cl)cc2NC(=O)Cn2c3ccccc3c(=O)c3ccccc32)CC1`, the IC90 was more than 10 µM. Moreover, where the note is “PBLUC_HILL_SLOPE 2.6, PBLUC_R_SQUARED 0.61, read-out: LUCIFERASE INFECTION ASSAY - IC50”, the IC50 was 4.43 µM.

As to `CC(C)(C(=O)NNC(=O)c1ccc2ccccc2n1)c1ccccc1`, the IC90 is 7.01 µM. Moreover, the IC50 (HEPG2TOX_HILL_SLOPE 11.1, HEPG2TOX_R_SQUARED 0.756, PBLUC_HILL_SLOPE 1.23E+03, PBLUC_R_SQUARED 0.165, read-out: LUCIFERASE INFECTION ASSAY - IC50) turned out to be 7 µM.

`Cc1ccc(Cn2nc(C)c(/C=N/NC(=O)c3ccccc3NS(=O)(=O)c3cccs3)c2C)cc1`: the IC90 is more than 10 µM. The IC50 under setting [1] is more than 10 µM.

On to `CC(C)(C)c1ccccc1NC(=O)Nc1nc(C(N)CCc2ccccc2)cs1` (configuration not stated), for which the IC90 was 8 µM. Besides, where the note is “PBLUC_HILL_SLOPE 12.3, PBLUC_R_SQUARED 0.125, read-out: LUCIFERASE INFECTION ASSAY - IC50”, the IC50 was 6.69 µM.

As to `N#Cc1ccc(COC(=O)c2ccc(O)cc2)cc1`, the IC90 is more than 10 µM. Under setting [1], the IC50 was more than 10 µM.

Regarding `Cc1ccc(O)c(C(=O)NCC(C)c2ccccc2)c1` (configuration not stated), the IC90 is 9.34 µM. For the same molecule, the IC50 (HEPG2TOX_HILL_SLOPE 0.817, HEPG2TOX_R_SQUARED 0.794, PBLUC_HILL_SLOPE 3.45, PBLUC_R_SQUARED 0.175, read-out: LUCIFERASE INFECTION ASSAY - IC50) was 4.94 µM.

In the case of `O=C(C1CCCN(c2cnccn2)C1)N1CCN(C(c2ccc(F)cc2)c2ccc(F)cc2)CC1` (configuration not stated), the IC90 was more than 10 µM. In addition, the IC50 (PBLUC_HILL_SLOPE 27.2, PBLUC_R_SQUARED 0.0353, read-out: LUCIFERASE INFECTION ASSAY - IC50) was 9.76 µM.

In the case of `CC(OC(=O)c1cc2sc3ccccc3c2s1)C(=O)N1CCNC1=O` (configuration not stated), the IC90 was 9.91 µM. Moreover, the IC50 (PBLUC_HILL_SLOPE 15.1, PBLUC_R_SQUARED 0.0385, read-out: LUCIFERASE INFECTION ASSAY - IC50) stood at 8.57 µM.

`Cc1cc2ncn(CC(O)CN3CCOCC3)c2cc1C` (configuration not stated): the IC90 is more than 10 µM. For the same molecule, the IC50 under setting [1] was more than 10 µM.

Take `CC(C)c1nc(N2CCN(CC(=O)N3CCCC3)CC2)c(C#N)c2c1CCC2`: the IC90 was 2.94 µM. Further, the IC50 (FFLUC_HILL_SLOPE 13.3, FFLUC_R_SQUARED 0.232, PBLUC_HILL_SLOPE 4.16, PBLUC_R_SQUARED 0.67, read-out: LUCIFERASE INFECTION ASSAY - IC50) was determined as 1.73 µM.

Turning to `COc1cc2c(cc1/C=C/C(=O)N(Cc1nc(=O)c3ccccc3[nH]1)CC1CCCO1)OC(C)C2` (configuration not stated), the IC90 is more than 10 µM. In addition, the IC50 under setting [1] is more than 10 µM.

For the molecule `CCOc1cc(/C=C2\CN(CC)C/C(=C\c3ccc(O)c(OCC)c3)C2=O)ccc1O`, the IC90 turned out to be 4.59 µM. The IC50 (HEPG2TOX_HILL_SLOPE 12.4, HEPG2TOX_R_SQUARED 0.875, PBLUC_HILL_SLOPE 8.96, PBLUC_R_SQUARED 0.775, read-out: LUCIFERASE INFECTION ASSAY - IC50) amounted to 3.59 µM.

On to `Cc1ccc(C(=O)/C=C/c2cn(C)c(=O)n(C)c2=O)c(C)c1`, for which the IC90 is more than 10 µM. Moreover, the IC50 (PBLUC_HILL_SLOPE 10.4, PBLUC_R_SQUARED 0.461, read-out: LUCIFERASE INFECTION ASSAY - IC50) was determined as 8.74 µM.

With `O=S(=O)(c1ccc(NC(=S)N/N=C2\CC(c3ccccc3)Oc3ccccc32)cc1)N1CCOCC1` (configuration not stated), the IC90 is more than 10 µM. In addition, under setting [1], the IC50 is 8.98 µM.

For `COc1ccc(-c2csc(NC(=O)c3ccc(Cl)c(S(=O)(=O)N4CCc5ccccc54)c3)n2)cc1OC`, the IC90 is more than 10 µM. For the setting “FFLUC_HILL_SLOPE 2.97, FFLUC_R_SQUARED 0.574, read-out: LUCIFERASE INFECTION ASSAY - IC50”, the IC50 was more than 10 µM.

`CN1CCN(c2ccc(Cl)cc2NC(=O)Nc2cc(Cl)ccc2N2CCN(C)CC2)CC1`: the IC90 was 3.56 µM. Besides, the IC50 (HEPG2TOX_HILL_SLOPE 4.19, HEPG2TOX_R_SQUARED 0.986, PBLUC_HILL_SLOPE 15.5, PBLUC_R_SQUARED 0.444, read-out: LUCIFERASE INFECTION ASSAY - IC50) was determined as 3.09 µM.

As for `CC(=O)c1ccc(-c2ccc(C(=O)N3CCC(c4nc5ccccc5o4)CC3)o2)cc1`, the IC90 was more than 10 µM. Further, for the setting “HEPG2TOX_HILL_SLOPE 6.21, HEPG2TOX_R_SQUARED 0.873, read-out: LUCIFERASE INFECTION ASSAY - IC50”, the IC50 is more than 10 µM.

Consider `COc1ncccc1-c1cc2c(cn1)nc(NCc1cccc(C)c1)n2C`, for which the IC90 was more than 10 µM. Moreover, the IC50 under setting [1] was more than 10 µM.

Take `CC(Sc1nc2ccccc2c(=O)n1CCCN1CCOCC1)c1ccc(F)cc1` (configuration not stated): the IC90 was more than 10 µM. For the same molecule, under setting [1], the IC50 is more than 10 µM.

`NC(CCc1ccccc1)c1csc(NC(=O)Nc2ccccc2-c2ccccc2)n1` (configuration not stated): the IC90 stood at 7.05 µM. In addition, the IC50 (PBLUC_HILL_SLOPE 12.2, PBLUC_R_SQUARED 0.388, read-out: LUCIFERASE INFECTION ASSAY - IC50) turned out to be 5.88 µM.

Turning to `N#Cc1cc(C(=O)c2ccc([N+](=O)[O-])cc2)c2nc3ccccc3n2c1N`, the IC90 is more than 10 µM. Besides, where the note is “HEPG2TOX_HILL_SLOPE 7.9, HEPG2TOX_R_SQUARED 0.276, PBLUC_HILL_SLOPE 1.76, PBLUC_R_SQUARED 0.097, read-out: LUCIFERASE INFECTION ASSAY - IC50”, the IC50 is 9.24 µM.

Consider `CCOC(=O)N1C/C(=C/c2cccc(O)c2)C(=O)/C(=C/c2cccc(O)c2)C1`, for which the IC90 is 9.23 µM. The IC50 (FFLUC_HILL_SLOPE 6.86, FFLUC_R_SQUARED 0.64, HEPG2TOX_HILL_SLOPE 2, HEPG2TOX_R_SQUARED 0.958, PBLUC_HILL_SLOPE 1.44, PBLUC_R_SQUARED 0.817, read-out: LUCIFERASE INFECTION ASSAY - IC50) amounted to 2.02 µM.

Take `CCC(NCC(O)COc1ccccc1C(C)C)C12CC3CC(CC(C3)C1)C2` (configuration not stated): the IC90 was more than 10 µM. Moreover, under setting [1], the IC50 is more than 10 µM.

As for `Cc1c(Cl)cccc1-c1ccc(C(=O)NCc2ccco2)o1`, the IC90 is more than 10.5 µM. For the same molecule, the IC50 under setting [1] is more than 10.5 µM.

Take `O=C(NCc1ccccc1)/C(=C/c1cn(-c2ccccc2)nc1-c1cccs1)c1nc2ccccc2[nH]1`: the IC90 stood at 9.82 µM. For the same molecule, the IC50 (PBLUC_HILL_SLOPE 3.73, PBLUC_R_SQUARED 0.245, read-out: LUCIFERASE INFECTION ASSAY - IC50) came out at 5.45 µM.

As to `CN(C)Cc1ccc(CNC(=O)Cc2ccc(-c3ccccc3)cc2)cc1`, the IC90 turned out to be 7.76 µM. The IC50 (HEPG2TOX_HILL_SLOPE 3.86, HEPG2TOX_R_SQUARED 0.943, PBLUC_HILL_SLOPE 3.55, PBLUC_R_SQUARED 0.451, read-out: LUCIFERASE INFECTION ASSAY - IC50) stood at 4.18 µM.

For `CC(C)(C)c1cc(C(=O)NNC(=S)Nc2ccccc2)n(Cc2ccc(Cl)cc2Cl)n1`, the IC90 worked out at 4.51 µM. Also, the IC50 (FFLUC_HILL_SLOPE 12.6, FFLUC_R_SQUARED 0.389, HEPG2TOX_HILL_SLOPE 2.18, HEPG2TOX_R_SQUARED 0.945, PBLUC_HILL_SLOPE 8.72, PBLUC_R_SQUARED 0.517, read-out: LUCIFERASE INFECTION ASSAY - IC50) was determined as 3.51 µM.

Turning to `CC(=O)Nc1cccc2c1CCN(c1ncnc3sccc13)C2`, the IC90 was 3.46 µM. The IC50 (PBLUC_HILL_SLOPE 34.6, PBLUC_R_SQUARED 0.49, read-out: LUCIFERASE INFECTION ASSAY - IC50) was found to be 3.25 µM.

Take `O=C(NCc1cccs1)C1Cc2c(-c3ccccc3)ccnc2O1` (configuration not stated): the IC90 amounted to 6.65 µM. Moreover, under “HEPG2TOX_HILL_SLOPE 2.36, HEPG2TOX_R_SQUARED 0.977, PBLUC_HILL_SLOPE 2.08, PBLUC_R_SQUARED 0.632, read-out: LUCIFERASE INFECTION ASSAY - IC50”, the IC50 amounted to 2.31 µM.

Regarding `Cc1cc(CN(C)CC(=O)Nc2sc3c(c2C(=O)Nc2ccc(Cl)cc2)CCCC3)no1`, the IC90 was more than 10 µM. Moreover, the IC50 (FFLUC_HILL_SLOPE 4.26, FFLUC_R_SQUARED 0.612, PBLUC_HILL_SLOPE 24.8, PBLUC_R_SQUARED 0.242, read-out: LUCIFERASE INFECTION ASSAY - IC50) is 9.19 µM.
